# Measured values published in paper PMC12519282, “Reduction of Negative Charge in Mercaptoacetyl-Based Chelators Influences the Biodistribution of Prostate-Specific Membrane Antigen-Targeting Pseudopeptides Labeled with Technetium-99m” (ACS Pharmacology & Translational Science, 2025).
# Where two headings read alike, the source gives them in different places. Marks after values point to notes of the source that are not given here.
# Columns and labels:
# PC3-pip xenografts = assay: biodistribution and tumor targeting in PC3-pip tumor-bearing mice; type: in vivo
# Excerpt: The injected masses for the in vivo experiments were chosen based on the findings for [^99mTc]-Tc-BQ0413: to study the general biodistribution of radiolabeled tracers in normal mice (NMRI), 40 pmol of tracer was used to avoid blocking of PSMA-mediated uptake in kidneys and salivary glands, to study tumor targeting, 5 nmol of tracer was used to decrease uptake in PSMA-expressing organs.
# PSMA-expressing PCa xenografts were implanted in BALB/c nu/nu mice by subcutaneous injection of the PC3-pip cell suspension in PBS (10^7 cells/animal in 100 μL). The average animal weight in the experiment was 18 ± 2 g. The average tumor weight was 0.4 ± 0.2 g. For in vivo specificity control, 10^7 cells/animal PSMA-negative PC-3 cells were implanted. The average animal weight was 18 ± 1 g. The average tumor weight was 0.1 ± 0.1 g. Four mice per data point were used in the in vivo experiments.
# For tumor-bearing mice, each mouse was intravenously injected with 5 nmol of [^99mTc]-Tc-BQ0413, [^99mTc]-Tc-BQ0500, and [^99mTc]-Tc-BQ0501 (60 kBq; the mass of the injected compound was adjusted with an unlabeled tracer). The mice were euthanized after lethal intraperitoneal injection of ketamine/xylazine, followed by exsanguination 1 and 3 h pi, similarly to the procedure described above.
# [1] = type: in vitro ADME, murine; conditions: 1 h
# Protocol: (§1) To evaluate the label’s stability, 10 μL (0.25 μg) of radiolabeled conjugates was incubated with 300× molar excess of cysteine or with PBS for 1 h at room temperature. The test was run in triplicate. The release of free technetium-99m was controlled by using iTLC and radio-HPLC analysis. The stability in serum was analyzed by mixing the radioconjugates (0.25 μg in 10 μL) with murine serum or PBS (40 μL) as a control. The samples were incubated for 1 h at 37 °C and analyzed by iTLC. The experiment was performed in triplicate. The octanol–water distribution coefficient (Log D) was determined experimentally by the addition of 100 pmol of the radiolabeled tracer to an Eppendorf tube containing PBS (500 μL) and n-octanol (500 μL), pH ∼ 7.4. The solution was vortexed and centrifuged, and aliquots (50 μL) from each phase were collected and measured using a gamma counter. The experiment was performed in triplicate.
# physchem = type: physicochemical; conditions: pH 7.4
# Protocol: as §1
# PC3-pip cells [2] = assay: cellular processing (membrane-bound / internalized activity); type: cell-based; conditions: 2 nM, continuous incubation, after 8 h
# Protocol: To evaluate cellular processing of technetium-99m-labeled BQ0500 and BQ0501, PC3-pip cells were incubated with the radiolabeled tracer (2 nM), and at 1, 2, 4, and 8 h of continuous incubation, the membrane-bound and internalized fractions were collected as previously described using 4 M urea solution in 0.2 M glycine buffer (pH 2) to collect membrane-bound fraction and 1 N solution of NaOH to collect the internalized fraction. The activity in the samples was measured, and the percentage of membrane-bound and internalized activity was calculated. The experiments were performed in triplicate.
# PC3-pip cells [3] = assay: in vitro binding specificity test; type: cell-based; conditions: 1 h, 37 °C
# Protocol: For the in vitro binding specificity test, approximately 8 × 10^5 PC3-pip cells per well were seeded 24 h before the experiment. […] Technetium-99m-labeled tracers were added to each well to reach a concentration of 2 nM. After 1 h of incubation at 37 °C, cells were washed with PBS solution, detached, and collected. Cell-associated activity was measured using a gamma counter and presented as the percentage of added activity.
# PSMA = biological target: T1, PSMA (Homo sapiens, UniProt Q04609); assay: binding kinetics in real time on living PC3-pip cells (LigandTracer Yellow)
# T1 construct: expressed in transfected cells; host or cells: PC3-pip (PSMA-transfected PC-3 prostate carcinoma cells), from Prof; Martin G. Pomper, Johns Hopkins University
# T1 sequence (Q04609 whole entry): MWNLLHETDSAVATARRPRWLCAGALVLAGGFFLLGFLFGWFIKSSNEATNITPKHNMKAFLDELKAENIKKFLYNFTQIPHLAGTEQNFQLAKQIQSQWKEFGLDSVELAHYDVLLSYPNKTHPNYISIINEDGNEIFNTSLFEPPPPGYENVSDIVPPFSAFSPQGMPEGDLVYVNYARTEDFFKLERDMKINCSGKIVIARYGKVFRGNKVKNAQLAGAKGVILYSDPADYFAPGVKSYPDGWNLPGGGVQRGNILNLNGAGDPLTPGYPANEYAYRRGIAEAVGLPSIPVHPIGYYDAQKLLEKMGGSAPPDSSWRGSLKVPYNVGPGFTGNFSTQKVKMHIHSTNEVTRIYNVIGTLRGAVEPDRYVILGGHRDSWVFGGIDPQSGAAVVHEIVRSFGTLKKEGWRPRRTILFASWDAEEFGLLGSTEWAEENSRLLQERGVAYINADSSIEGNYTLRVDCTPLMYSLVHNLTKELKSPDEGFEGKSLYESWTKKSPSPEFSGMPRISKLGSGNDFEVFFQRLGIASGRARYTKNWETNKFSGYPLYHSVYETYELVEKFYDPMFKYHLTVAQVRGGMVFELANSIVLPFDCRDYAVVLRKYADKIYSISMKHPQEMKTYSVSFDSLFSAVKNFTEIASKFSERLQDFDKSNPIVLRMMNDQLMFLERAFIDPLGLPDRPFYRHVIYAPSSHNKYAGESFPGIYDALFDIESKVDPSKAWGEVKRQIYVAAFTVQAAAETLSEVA
# Protocol: The binding kinetics of technetium-99m-labeled BQ0413, BQ0500, and BQ0501 were determined in PC3-pip cells in real-time using LigandTracer Yellow (Ridgeview Instruments AB, Uppsala, Sweden). The activity binding was recorded with 5 nM radiolabeled tracers for 150 min. After the binding kinetics were measured, the medium containing the labeled tracer was replaced with fresh medium, and the dissociation was monitored over 7 h. The association rate (k a) and the dissociation rate (k d) were computed using a 1:2 kinetic binding model in TraceDrawer software (Ridgeview Instruments AB, Uppsala, Sweden), and the equilibrium dissociation constant K D was calculated.
# [4] = PC3-pip tumor-bearing mice, 5 nmol/mouse iv, 1 h pi
# [5] = PC3-pip tumor-bearing mice, 5 nmol/mouse iv, 3 h pi
# [6] = PC3-pip tumor-bearing mice, 5 nmol/mouse iv, 3 h pi, listed as [99mTc]Tc-BQ0500
smiles,measurement,setting,value
"CC(=O)NC(CCCCNC(=O)CNC(=O)C(CCC(=O)O)NC(=O)C(CO)NC(=O)C(CCC(=O)O)NC(=O)CS)C(=O)NCCCCCCCC(=O)NC(Cc1ccc(O)cc1)C(=O)NC(Cc1ccc2ccccc2c1)C(=O)NCCCCC(NC(=O)NC(CCC(=O)O)C(=O)O)C(=O)O (stereo not shown) [[^99mTc]Tc-BQ0500, metal not drawn]","activity uptake in intestines with content, higher compared to [99mTc]Tc-BQ0413","PC3-pip xenografts; PC3-pip tumor-bearing mice, 5 nmol",5.3 fold
same,activity in carcass,PC3-pip xenografts; [4],7 ± 1 ^b %IA/sample
same,activity in intestines with content,PC3-pip xenografts; [4],"3.9 ± 0.4 ^b, ^c, ^d %IA/sample"
same,activity uptake in blood,PC3-pip xenografts; [4],1.1 ± 0.2 ^b %IA/g
same,activity uptake in bone,PC3-pip xenografts; [4],"0.5 ± 0.1 ^b, ^d %IA/g"
same,activity uptake in kidney,PC3-pip xenografts; [4],51 ± 3 ^b ^c %IA/g
same,activity uptake in liver,PC3-pip xenografts; [4],0.9 ± 0.2 ^b %IA/g
same,activity uptake in lung,PC3-pip xenografts; [4],1.3 ± 0.2 ^b %IA/g
same,activity uptake in muscle,PC3-pip xenografts; [4],0.3 ± 0.1 ^b %IA/g
same,activity uptake in pancreas,PC3-pip xenografts; [4],0.4 ± 0.1 ^b %IA/g
same,activity uptake in salivary gland,PC3-pip xenografts; [4],"0.7 ± 0.1 ^b ^, ^d %IA/g"
same,activity uptake in small intestines,PC3-pip xenografts; [4],0.6 ± 0.2 ^c %IA/g
same,activity uptake in spleen,PC3-pip xenografts; [4],2.5 ± 0.2 ^b %IA/g
same,activity uptake in stomach,PC3-pip xenografts; [4],0.47 ± 0.02 ^d %IA/g
same,activity uptake in tumor,PC3-pip xenografts; [4],29 ± 3 %IA/g
same,tumor-to-blood ratio,PC3-pip xenografts; [4],28 ± 6 ^b
same,tumor-to-bone ratio,PC3-pip xenografts; [4],"65 ± 15 ^b ^, ^d"
same,tumor-to-kidney ratio,PC3-pip xenografts; [4],"0.6 ± 0.1 ^b ^, ^c"
same,tumor-to-liver ratio,PC3-pip xenografts; [4],32 ± 7 ^b
same,tumor-to-lung ratio,PC3-pip xenografts; [4],23 ± 4 ^b
same,tumor-to-muscle ratio,PC3-pip xenografts; [4],101 ± 28 ^b
same,tumor-to-pancreas ratio,PC3-pip xenografts; [4],69 ± 13
same,tumor-to-salivary gland ratio,PC3-pip xenografts; [4],"42 ± 8 ^b ^, ^d"
same,tumor-to-small intestines ratio,PC3-pip xenografts; [4],51 ± 20
same,tumor-to-spleen ratio,PC3-pip xenografts; [4],12 ± 2 ^b
same,tumor-to-stomach ratio,PC3-pip xenografts; [4],61 ± 7 ^d
same,activity in carcass,PC3-pip xenografts; [5],4 ± 1 ^d %IA/sample
same,activity in intestines with content,PC3-pip xenografts; [5],"5.4 ± 0.3 ^c, ^d %IA/sample"
same,activity uptake in blood,PC3-pip xenografts; [5],"0.3 ± 0.1 ^c ^, ^d %IA/g"
same,activity uptake in bone,PC3-pip xenografts; [5],0.10 ± 0.02 %IA/g
same,activity uptake in kidney,PC3-pip xenografts; [5],"33 ± 3 ^c, ^d %IA/g"
same,activity uptake in liver,PC3-pip xenografts; [5],0.4 ± 0.1 ^c %IA/g
same,activity uptake in lung,PC3-pip xenografts; [5],0.4 ± 0.1 ^c %IA/g
same,activity uptake in muscle,PC3-pip xenografts; [5],0.10 ± 0.03 %IA/g
same,activity uptake in pancreas,PC3-pip xenografts; [5],0.3 ± 0.2 %IA/g
same,activity uptake in salivary gland,PC3-pip xenografts; [5],0.2 ± 0.1 ^d %IA/g
same,activity uptake in small intestines,PC3-pip xenografts; [5],0.4 ± 0.2 %IA/g
same,activity uptake in spleen,PC3-pip xenografts; [5],1.4 ± 0.3 ^c %IA/g
same,activity uptake in stomach,PC3-pip xenografts; [5],1.6 ± 1.2 ^c %IA/g
same,tumor-to-bone ratio,PC3-pip xenografts; [5],341 ± 100 ^d
same,tumor-to-kidney ratio,PC3-pip xenografts; [5],1.0 ± 0.2 ^c
same,tumor-to-liver ratio,PC3-pip xenografts; [5],79 ± 22 ^c
same,tumor-to-lung ratio,PC3-pip xenografts; [5],71 ± 15 ^c
same,tumor-to-muscle ratio,PC3-pip xenografts; [5],332 ± 99
same,tumor-to-pancreas ratio,PC3-pip xenografts; [5],140 ± 82 ^c
same,tumor-to-salivary gland ratio,PC3-pip xenografts; [5],141 ± 42
same,tumor-to-small intestines ratio,PC3-pip xenografts; [5],94 ± 38 ^c
same,tumor-to-spleen ratio,PC3-pip xenografts; [5],22 ± 5 ^c
same,tumor-to-stomach ratio,PC3-pip xenografts; [5],38 ± 39 ^c
same,activity in carcass,PC3-pip xenografts; [6],4±1 %IA/sample
same,activity in intestines with content,PC3-pip xenografts; [6],5.4±0.3 %IA/sample
same,activity uptake in blood,PC3-pip xenografts; [6],0.3±0.1 %IA/g
same,activity uptake in bone,PC3-pip xenografts; [6],0.10±0.02 %IA/g
same,activity uptake in kidney,PC3-pip xenografts; [6],33±3 %IA/g
same,activity uptake in liver,PC3-pip xenografts; [6],0.4±0.1 %IA/g
same,activity uptake in lung,PC3-pip xenografts; [6],0.4±0.1 %IA/g
same,activity uptake in muscle,PC3-pip xenografts; [6],0.10±0.03 %IA/g
same,activity uptake in pancreas,PC3-pip xenografts; [6],0.3±0.2 %IA/g
same,activity uptake in salivary gland,PC3-pip xenografts; [6],0.2±0.1 %IA/g
same,activity uptake in small intestines,PC3-pip xenografts; [6],0.4±0.2 %IA/g
same,activity uptake in spleen,PC3-pip xenografts; [6],1.4±0.3 %IA/g
same,activity uptake in stomach,PC3-pip xenografts; [6],1.6±1.2 %IA/g
same,activity uptake in tumor,PC3-pip xenografts; [6],31±4 %IA/g
same,excretion pathway,PC3-pip xenografts; PC3-pip xenografts,predominantly renal
same,intact tracer in PBS,"[1]; PBS control, 37 °C, n = 3",99.0 ± 0.5%
same,intact tracer in murine serum,"[1]; mouse, 5 µg/mL",99.7 ± 0.3%
same,Log D (octanol–water distribution coefficient),physchem,−2.5 ± 0.1
same,maximum of internalized activity,PC3-pip cells [2],42–43 % of cell-associated activity
same,activity uptake by PC3-pip cells,PC3-pip cells [3]; 2 nM tracer,71 ± 4 % of added activity
same,activity uptake by PC3-pip cells after presaturation with PSMA-11,"PC3-pip cells [3]; 250-fold excess of nonlabeled PSMA-11, 2 nM tracer",significantly (p < 0.0001) decreased
same,B max1 (binding maximum),"PSMA; 5 nM tracer, 1:2 model (1:1 for BQ0413)",881 CPS
same,B max2 (binding maximum),"PSMA; 5 nM tracer, 1:2 model, second interaction",40 CPS
same,Kd,"PSMA; 5 nM tracer, 1:2 model, second interaction, read-out: K D2",52 pM
same,affinity compromised in comparison with [99mTc]Tc-BQ0413,PSMA; PC3-pip cells,3–5 fold
same,Kd,"PSMA; as rounded in comparison table, read-out: K D1",300 pM
same,Kd,"PSMA; as rounded in comparison table, read-out: K D2",50 pM
